Measurements: publication PMC8401933 (Molecules, 2021)

Key:
Assay in all cases: KINOMEscan binding
AAK1 = molecular target: T1, AAK1 (Homo sapiens, UniProt Q2M2I8); conditions: read-out: Percent Control
T1 construct: purchased Eurofins DiscoverX KINOMEscan

PIP5K1C = molecular target: T2, PIP5K1C (Homo sapiens, UniProt O60331); conditions: read-out: Percent Control
T2 construct: purchased Eurofins DiscoverX KINOMEscan

FLT3(ITD,F691L) = tested on: FLT3(ITD,F691L); set-up: species or system human; conditions: 10 μM
CDK4-cyclinD3 = molecular target: T3, CDK4-cyclinD3 (Homo sapiens, UniProt P11802); conditions: read-out: Percent Control
T3 construct: purchased Eurofins DiscoverX KINOMEscan

KIT(D816V) = molecular target: T4, KIT(D816V) (Homo sapiens, UniProt P10721, D816V); conditions: read-out: Percent Control
T4 construct: purchased Eurofins DiscoverX KINOMEscan

SLK = molecular target: T5, SLK (Homo sapiens, UniProt Q9H2G2); conditions: read-out: Percent Control
T5 construct: purchased Eurofins DiscoverX KINOMEscan

CSNK1G2 = molecular target: T6, CSNK1G2 (Homo sapiens, UniProt P78368); conditions: read-out: Percent Control
T6 construct: purchased Eurofins DiscoverX KINOMEscan

PIM3 = molecular target: T7, PIM3 (Homo sapiens, UniProt Q86V86); conditions: read-out: Percent Control
T7 construct: purchased Eurofins DiscoverX KINOMEscan

TIE1 = molecular target: T8, TIE1 (Homo sapiens, UniProt P35590); conditions: read-out: Percent Control
T8 construct: purchased Eurofins DiscoverX KINOMEscan

JNK2 = molecular target: T9, JNK2 (Homo sapiens, UniProt P45984); conditions: read-out: Percent Control
T9 construct: purchased Eurofins DiscoverX KINOMEscan

MARK4 = molecular target: T10, MARK4 (Homo sapiens, UniProt Q96L34); conditions: read-out: Percent Control
T10 construct: purchased Eurofins DiscoverX KINOMEscan
T10 sequence (Q96L34 whole entry): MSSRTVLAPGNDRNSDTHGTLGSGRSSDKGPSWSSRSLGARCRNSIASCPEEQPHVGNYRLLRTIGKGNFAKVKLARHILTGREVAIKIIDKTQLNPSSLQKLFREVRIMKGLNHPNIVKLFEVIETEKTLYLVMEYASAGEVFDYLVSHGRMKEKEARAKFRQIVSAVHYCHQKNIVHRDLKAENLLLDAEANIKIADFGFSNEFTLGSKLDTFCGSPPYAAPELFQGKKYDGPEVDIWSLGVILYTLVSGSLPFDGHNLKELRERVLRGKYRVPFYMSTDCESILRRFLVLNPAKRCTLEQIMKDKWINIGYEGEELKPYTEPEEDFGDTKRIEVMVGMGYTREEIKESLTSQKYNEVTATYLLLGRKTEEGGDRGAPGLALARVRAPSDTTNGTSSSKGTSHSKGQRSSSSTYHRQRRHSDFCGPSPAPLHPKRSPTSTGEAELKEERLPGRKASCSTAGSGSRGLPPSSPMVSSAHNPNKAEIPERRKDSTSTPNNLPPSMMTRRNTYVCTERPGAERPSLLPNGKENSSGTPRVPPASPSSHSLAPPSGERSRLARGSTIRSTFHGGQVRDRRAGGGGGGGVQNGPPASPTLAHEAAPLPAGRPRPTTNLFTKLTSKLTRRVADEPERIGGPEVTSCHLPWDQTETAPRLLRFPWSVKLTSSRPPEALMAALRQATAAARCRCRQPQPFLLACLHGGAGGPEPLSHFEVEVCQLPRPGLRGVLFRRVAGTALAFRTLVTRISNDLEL

SRPK2 = molecular target: T11, SRPK2 (Homo sapiens, UniProt P78362); conditions: read-out: Percent Control
T11 construct: purchased Eurofins DiscoverX KINOMEscan

TBK1 = molecular target: T12, TBK1 (Homo sapiens, UniProt Q9UHD2); conditions: read-out: Percent Control
T12 construct: purchased Eurofins DiscoverX KINOMEscan

CLK3 = molecular target: T13, CLK3 (Homo sapiens, UniProt P49761); conditions: read-out: Percent Control
T13 construct: purchased Eurofins DiscoverX KINOMEscan

HIPK4 = molecular target: T14, HIPK4 (Homo sapiens, UniProt Q8NE63); conditions: read-out: Percent Control
T14 construct: purchased Eurofins DiscoverX KINOMEscan

KIT(L576P) = molecular target: T15, KIT(L576P) (Homo sapiens, UniProt P10721, L576P); conditions: read-out: Percent Control
T15 construct: purchased Eurofins DiscoverX KINOMEscan

SIK2 = molecular target: T16, SIK2 (Homo sapiens, UniProt Q9H0K1); conditions: read-out: Percent Control
T16 construct: purchased Eurofins DiscoverX KINOMEscan

AMPK-alpha1 = molecular target: T17, AMPK-alpha1 (Homo sapiens, UniProt Q13131); conditions: read-out: Percent Control
T17 construct: purchased Eurofins DiscoverX KINOMEscan

VEGFR2 = molecular target: T18, VEGFR2 (Homo sapiens, UniProt P35968); conditions: read-out: Percent Control
T18 construct: purchased Eurofins DiscoverX KINOMEscan

HASPIN = molecular target: T19, HASPIN (Homo sapiens, UniProt Q8TF76); conditions: read-out: Percent Control
T19 construct: purchased Eurofins DiscoverX KINOMEscan

NDR2 = molecular target: T20, NDR2 (Homo sapiens, UniProt Q9Y2H1); conditions: read-out: Percent Control
T20 construct: purchased Eurofins DiscoverX KINOMEscan
T20 sequence (Q9Y2H1 whole entry): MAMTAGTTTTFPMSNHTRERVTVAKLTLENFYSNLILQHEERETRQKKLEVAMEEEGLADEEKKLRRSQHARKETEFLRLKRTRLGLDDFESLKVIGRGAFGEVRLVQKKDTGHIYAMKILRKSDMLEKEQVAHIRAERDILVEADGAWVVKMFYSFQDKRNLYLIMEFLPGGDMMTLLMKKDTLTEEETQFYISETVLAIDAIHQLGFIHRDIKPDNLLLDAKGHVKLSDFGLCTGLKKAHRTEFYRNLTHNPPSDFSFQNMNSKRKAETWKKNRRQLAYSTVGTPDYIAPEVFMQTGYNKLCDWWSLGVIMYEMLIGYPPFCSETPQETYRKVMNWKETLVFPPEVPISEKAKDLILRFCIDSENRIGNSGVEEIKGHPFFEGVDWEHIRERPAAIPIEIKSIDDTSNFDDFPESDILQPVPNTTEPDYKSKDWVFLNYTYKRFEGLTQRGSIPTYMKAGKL

ERBB3 = molecular target: T21, ERBB3 (Homo sapiens, UniProt P21860); conditions: read-out: Percent Control
T21 construct: purchased Eurofins DiscoverX KINOMEscan

INSRR = molecular target: T22, INSRR (Homo sapiens, UniProt P14616); conditions: read-out: Percent Control
T22 construct: purchased Eurofins DiscoverX KINOMEscan

NIK = molecular target: T23, NIK (Homo sapiens, UniProt Q99558); conditions: read-out: Percent Control
T23 construct: purchased Eurofins DiscoverX KINOMEscan

STK35 = molecular target: T24, STK35 (Homo sapiens, UniProt Q8TDR2); conditions: read-out: Percent Control
T24 construct: purchased Eurofins DiscoverX KINOMEscan

BRAF = molecular target: T25, BRAF (Homo sapiens, UniProt P15056); conditions: read-out: Percent Control
T25 construct: purchased Eurofins DiscoverX KINOMEscan

DRAK2 = molecular target: T26, DRAK2 (Homo sapiens, UniProt O94768); conditions: read-out: Percent Control
T26 construct: purchased Eurofins DiscoverX KINOMEscan

QSK = molecular target: T27, QSK (Homo sapiens, UniProt Q9Y2K2); conditions: read-out: Percent Control
T27 construct: purchased Eurofins DiscoverX KINOMEscan

[1] = molecular target: T28, ABL1(M351T)-phosphorylated (Homo sapiens, UniProt P00519, M351T); conditions: read-out: Percent Control
T28 construct: purchased Eurofins DiscoverX KINOMEscan

PCTK1 = molecular target: T29, PCTK1 (Homo sapiens, UniProt Q00536); conditions: read-out: Percent Control
T29 construct: purchased Eurofins DiscoverX KINOMEscan

MTOR = molecular target: T30, MTOR (Homo sapiens, UniProt P42345); conditions: read-out: Percent Control
T30 construct: purchased Eurofins DiscoverX KINOMEscan

[2] = molecular target: T31, ABL1(F317I)-phosphorylated (Homo sapiens, UniProt P00519, F317I); conditions: read-out: Percent Control
T31 construct: purchased Eurofins DiscoverX KINOMEscan

BRSK1 = molecular target: T32, BRSK1 (Homo sapiens, UniProt Q8TDC3); conditions: read-out: Percent Control
T32 construct: purchased Eurofins DiscoverX KINOMEscan

PKAC-beta = molecular target: T33, PKAC-beta (Homo sapiens, UniProt P22694); conditions: read-out: Percent Control
T33 construct: purchased Eurofins DiscoverX KINOMEscan

EPHB3 = molecular target: T34, EPHB3 (Homo sapiens, UniProt P54753); conditions: read-out: Percent Control
T34 construct: purchased Eurofins DiscoverX KINOMEscan

ASK1 = molecular target: T35, ASK1 (Homo sapiens, UniProt Q99683); conditions: read-out: Percent Control
T35 construct: purchased Eurofins DiscoverX KINOMEscan
T35 sequence (Q99683 whole entry): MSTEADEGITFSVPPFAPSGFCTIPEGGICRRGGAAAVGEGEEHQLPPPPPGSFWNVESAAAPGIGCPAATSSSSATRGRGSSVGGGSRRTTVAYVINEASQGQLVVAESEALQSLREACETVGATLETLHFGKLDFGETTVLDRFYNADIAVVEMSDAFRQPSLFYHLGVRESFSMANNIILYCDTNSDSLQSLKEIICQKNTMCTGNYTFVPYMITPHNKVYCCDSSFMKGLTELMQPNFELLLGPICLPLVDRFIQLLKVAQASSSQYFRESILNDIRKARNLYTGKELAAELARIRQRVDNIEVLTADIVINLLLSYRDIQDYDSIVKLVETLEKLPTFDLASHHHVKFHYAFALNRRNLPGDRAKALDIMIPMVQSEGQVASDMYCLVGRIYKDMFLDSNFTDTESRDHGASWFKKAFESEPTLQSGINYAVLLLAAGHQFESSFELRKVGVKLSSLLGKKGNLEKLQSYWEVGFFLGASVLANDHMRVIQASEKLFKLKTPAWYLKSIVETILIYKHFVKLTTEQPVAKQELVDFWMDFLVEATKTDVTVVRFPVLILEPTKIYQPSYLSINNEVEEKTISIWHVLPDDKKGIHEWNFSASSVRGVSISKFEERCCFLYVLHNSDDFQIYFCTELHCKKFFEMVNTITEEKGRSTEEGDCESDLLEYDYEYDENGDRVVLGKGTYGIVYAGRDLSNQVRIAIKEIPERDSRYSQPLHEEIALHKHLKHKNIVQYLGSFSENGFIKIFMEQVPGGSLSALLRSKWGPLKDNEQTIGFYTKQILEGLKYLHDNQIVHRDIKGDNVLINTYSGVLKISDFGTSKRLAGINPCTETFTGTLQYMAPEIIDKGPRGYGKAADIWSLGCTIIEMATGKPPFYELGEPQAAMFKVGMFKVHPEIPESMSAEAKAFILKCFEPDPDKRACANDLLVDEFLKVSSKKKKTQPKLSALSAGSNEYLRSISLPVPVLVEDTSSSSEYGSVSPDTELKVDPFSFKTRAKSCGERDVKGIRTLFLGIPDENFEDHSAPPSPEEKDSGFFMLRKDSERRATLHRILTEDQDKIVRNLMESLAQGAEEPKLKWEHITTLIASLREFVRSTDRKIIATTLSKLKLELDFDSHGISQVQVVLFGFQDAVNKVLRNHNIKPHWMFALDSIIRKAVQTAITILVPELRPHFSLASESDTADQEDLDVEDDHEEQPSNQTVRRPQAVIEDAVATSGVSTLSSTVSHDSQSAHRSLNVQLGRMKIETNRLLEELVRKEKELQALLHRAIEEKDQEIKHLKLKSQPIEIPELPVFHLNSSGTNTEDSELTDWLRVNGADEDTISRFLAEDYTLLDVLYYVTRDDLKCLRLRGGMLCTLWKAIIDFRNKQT

CDKL5 = molecular target: T36, CDKL5 (Homo sapiens, UniProt O76039); conditions: read-out: Percent Control
T36 construct: purchased Eurofins DiscoverX KINOMEscan

CSNK1G3 = molecular target: T37, CSNK1G3 (Homo sapiens, UniProt Q9Y6M4); conditions: read-out: Percent Control
T37 construct: purchased Eurofins DiscoverX KINOMEscan
T37 sequence (Q9Y6M4 whole entry): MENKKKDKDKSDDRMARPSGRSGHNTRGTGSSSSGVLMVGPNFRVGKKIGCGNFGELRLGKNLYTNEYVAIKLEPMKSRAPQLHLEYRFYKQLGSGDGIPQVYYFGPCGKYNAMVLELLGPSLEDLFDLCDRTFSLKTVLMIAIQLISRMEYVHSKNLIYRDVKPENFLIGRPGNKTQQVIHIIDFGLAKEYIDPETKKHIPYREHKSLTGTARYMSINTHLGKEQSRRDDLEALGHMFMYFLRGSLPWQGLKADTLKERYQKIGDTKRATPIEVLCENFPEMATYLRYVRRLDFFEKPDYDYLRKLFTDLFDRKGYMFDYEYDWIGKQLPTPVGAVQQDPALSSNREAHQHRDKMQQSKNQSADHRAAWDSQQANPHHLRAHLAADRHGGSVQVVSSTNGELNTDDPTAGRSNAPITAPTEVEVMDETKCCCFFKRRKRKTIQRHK

MAST1 = molecular target: T38, MAST1 (Homo sapiens, UniProt Q9Y2H9); conditions: read-out: Percent Control
T38 construct: purchased Eurofins DiscoverX KINOMEscan

PFPK5(P.falciparum) = molecular target: T39, PFPK5(P.falciparum) (Plasmodium falciparum, UniProt P61075); conditions: read-out: Percent Control
T39 construct: purchased Eurofins DiscoverX KINOMEscan
T39 sequence (P61075 whole entry): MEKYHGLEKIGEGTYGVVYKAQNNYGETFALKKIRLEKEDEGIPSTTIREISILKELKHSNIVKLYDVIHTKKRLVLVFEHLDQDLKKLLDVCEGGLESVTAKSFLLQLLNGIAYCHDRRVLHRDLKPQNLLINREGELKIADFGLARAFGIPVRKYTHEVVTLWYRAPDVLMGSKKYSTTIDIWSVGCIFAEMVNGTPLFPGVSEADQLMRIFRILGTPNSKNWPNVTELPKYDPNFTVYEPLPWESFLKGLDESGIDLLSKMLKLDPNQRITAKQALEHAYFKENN

PHKG2 = molecular target: T40, PHKG2 (Homo sapiens, UniProt P15735); conditions: read-out: Percent Control
T40 construct: purchased Eurofins DiscoverX KINOMEscan
T40 sequence (P15735 whole entry): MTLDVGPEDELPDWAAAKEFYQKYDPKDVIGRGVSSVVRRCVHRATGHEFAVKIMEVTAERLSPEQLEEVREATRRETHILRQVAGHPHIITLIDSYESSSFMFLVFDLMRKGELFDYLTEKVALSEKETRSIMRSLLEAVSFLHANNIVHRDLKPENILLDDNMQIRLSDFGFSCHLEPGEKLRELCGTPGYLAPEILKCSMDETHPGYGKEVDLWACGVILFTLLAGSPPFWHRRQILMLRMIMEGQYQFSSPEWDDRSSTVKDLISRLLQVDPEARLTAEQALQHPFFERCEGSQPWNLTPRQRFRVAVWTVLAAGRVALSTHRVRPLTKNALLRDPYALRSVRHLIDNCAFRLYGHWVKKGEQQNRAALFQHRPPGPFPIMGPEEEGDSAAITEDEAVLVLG

PRKD2 = molecular target: T41, PRKD2 (Homo sapiens, UniProt Q9BZL6); conditions: read-out: Percent Control
T41 construct: purchased Eurofins DiscoverX KINOMEscan
T41 sequence (Q9BZL6 whole entry): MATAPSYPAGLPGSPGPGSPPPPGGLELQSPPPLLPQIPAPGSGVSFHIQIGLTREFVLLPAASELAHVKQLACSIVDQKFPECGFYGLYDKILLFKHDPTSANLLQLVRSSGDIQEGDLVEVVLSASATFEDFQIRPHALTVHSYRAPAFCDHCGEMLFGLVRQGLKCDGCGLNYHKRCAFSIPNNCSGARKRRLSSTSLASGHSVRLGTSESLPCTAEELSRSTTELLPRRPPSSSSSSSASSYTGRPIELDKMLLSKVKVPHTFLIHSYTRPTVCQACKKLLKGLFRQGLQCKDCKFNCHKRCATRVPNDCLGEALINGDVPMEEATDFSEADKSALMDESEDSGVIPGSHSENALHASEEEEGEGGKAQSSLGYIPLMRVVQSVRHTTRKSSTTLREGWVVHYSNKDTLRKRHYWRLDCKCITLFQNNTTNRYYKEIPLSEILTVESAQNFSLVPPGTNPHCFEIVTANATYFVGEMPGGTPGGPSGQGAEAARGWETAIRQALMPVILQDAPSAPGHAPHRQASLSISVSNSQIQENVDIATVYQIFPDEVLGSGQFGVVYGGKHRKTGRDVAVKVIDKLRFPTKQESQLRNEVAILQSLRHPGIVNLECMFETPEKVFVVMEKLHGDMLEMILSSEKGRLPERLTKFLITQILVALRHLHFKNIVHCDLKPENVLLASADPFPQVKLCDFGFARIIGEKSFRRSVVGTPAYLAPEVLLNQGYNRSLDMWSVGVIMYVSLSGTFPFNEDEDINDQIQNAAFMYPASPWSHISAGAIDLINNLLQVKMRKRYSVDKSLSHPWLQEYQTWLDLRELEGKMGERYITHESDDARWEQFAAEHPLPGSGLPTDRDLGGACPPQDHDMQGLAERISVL

SBK1 = molecular target: T42, SBK1 (Homo sapiens, UniProt Q52WX2); conditions: read-out: Percent Control
T42 construct: purchased Eurofins DiscoverX KINOMEscan
T42 sequence (Q52WX2 whole entry): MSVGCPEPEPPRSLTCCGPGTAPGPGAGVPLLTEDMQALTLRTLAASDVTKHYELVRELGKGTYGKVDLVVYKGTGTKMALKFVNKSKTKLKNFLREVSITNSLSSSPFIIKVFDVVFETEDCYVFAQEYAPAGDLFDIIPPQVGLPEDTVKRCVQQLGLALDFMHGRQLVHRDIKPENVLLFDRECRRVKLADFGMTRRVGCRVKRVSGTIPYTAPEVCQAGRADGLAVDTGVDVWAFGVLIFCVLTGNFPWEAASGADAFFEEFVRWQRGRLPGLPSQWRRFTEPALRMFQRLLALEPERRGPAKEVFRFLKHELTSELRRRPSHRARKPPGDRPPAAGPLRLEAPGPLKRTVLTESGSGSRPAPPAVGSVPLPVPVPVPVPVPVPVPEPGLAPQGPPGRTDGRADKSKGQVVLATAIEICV

TLK1 = molecular target: T43, TLK1 (Homo sapiens, UniProt Q9UKI8); conditions: read-out: Percent Control
T43 construct: purchased Eurofins DiscoverX KINOMEscan

What does the source list for `CC(C)NC(=O)COc1cccc(-c2nc(Nc3ccc4[nH]ncc4c3)c3ccccc3n2)c1` [KD025, 2-(3-(4-((1H-indazol-5-yl)amino)quinazolin-2-yl)phenoxy)-N-isopropylacetamide]?
remaining binding at 10 µM (AAK1): 29%; remaining binding at 10 µM (PIP5K1C): 47%; Percent Control (FLT3(ITD,F691L)): 52%; remaining binding at 10 µM (CDK4-cyclinD3): 53%; remaining binding at 10 µM (KIT(D816V)): 57%; remaining binding at 10 µM (SLK): 59%; remaining binding at 10 µM (CSNK1G2): 60%; remaining binding at 10 µM (PIM3): 63%; remaining binding at 10 µM (TIE1): 63%; remaining binding at 10 µM (JNK2): 66%; remaining binding at 10 µM (MARK4): 66%; remaining binding at 10 µM (SRPK2): 66%; remaining binding at 10 µM (TBK1): 66%; remaining binding at 10 µM (CLK3): 68%; remaining binding at 10 µM (HIPK4): 69%; remaining binding at 10 µM (KIT(L576P)): 74%; remaining binding at 10 µM (SIK2): 74%; remaining binding at 10 µM (AMPK-alpha1): 76%; remaining binding at 10 µM (VEGFR2): 76%; remaining binding at 10 µM (HASPIN): 77%; remaining binding at 10 µM (NDR2): 77%; remaining binding at 10 µM (ERBB3): 79%; remaining binding at 10 µM (INSRR): 83%; remaining binding at 10 µM (NIK): 84%; remaining binding at 10 µM (STK35): 84%; remaining binding at 10 µM (BRAF): 85%; remaining binding at 10 µM (DRAK2): 85%; remaining binding at 10 µM (QSK): 88%; remaining binding at 10 µM [1]: 90%; remaining binding at 10 µM (PCTK1): 91%; remaining binding at 10 µM (MTOR): 92%; remaining binding at 10 µM [2]: 93%; remaining binding at 10 µM (BRSK1): 93%; remaining binding at 10 µM (PKAC-beta): 98%; remaining binding at 10 µM (EPHB3): 99%; remaining binding at 10 µM (ASK1): 100%; remaining binding at 10 µM (CDKL5): 100%; remaining binding at 10 µM (CSNK1G3): 100%; remaining binding at 10 µM (MAST1): 100%; remaining binding at 10 µM (PFPK5(P.falciparum)): 100%; remaining binding at 10 µM (PHKG2): 100%; remaining binding at 10 µM (PRKD2): 100%; remaining binding at 10 µM (SBK1): 100%; remaining binding at 10 µM (TLK1): 100%
